Reference: US8383129B2, “Employment of rotavirus proteins, derived proteins and peptides for the modulation of tissue permeability” (priority 2003, dated 2013)
Entries after “also recorded” stand apart in the source; their conditions may differ.

Columns and labels:
[1] = test system: MDCK monolayers; test: Transepithelial electrical resistance (TER) across confluent MDCK monolayers; settings: for TER of MDCK monolayers treated with synthetic cyclic peptides: 100 or 500 μg/ml, versus control cultures; for TER of epithelial (MDCK) monolayers: confluent monolayers (FIG. 1: after 30 min. of treatment); for TER after withdrawal of the protein from the culture media: monolayers washed and transferred to media without GST-VP8; for dose dependence of the effect upon TER: 0.4, 4 or 10 μg/ml
Protocol: MDCK cells were cultured as previously described (Gonzalez-Mariscal et al., 1990) and used for experiments between passages 70-90.
The degree of sealing of tight junctions was evaluated by measuring the transepithelial electrical resistance (TER) across the monolayer. Standard procedures were followed (Gonzalez-Mariscal et al., 1990). Briefly, monolayers grown over Millipore filters were mounted between two Lucite chambers with an exposed area of 0.23 cm2. Current was delivered via Ag—AgCl electrodes placed at 2.0 cm form the monolayer; the voltage deflection elicited was measured with a second set of electrodes placed at 1.0 mm from the membrane. The contribution if the filter and the bathing solution was subtracted, and all values reported correspond exclusively to the monolayer. Each disk was used for a single determination.
The determination of the TER across an epithelial monolayer was done as described in Example 1.

[2] = test system: pancreatic cancer and gastrointestinal tumors; settings: cited from earlier work
[3] = test system: male Wistar rats; test: Induction of diabetes: blood glucose after streptozotocin; assay type: in vivo, rat; settings: 75 mg/kg intraperitoneal, three days after injection, versus mock injection
Protocol: (§1) A) Generation of Diabetic Rats. • Male Wistar rats (230-250 gr.) were maintained on PicoLab® Rodent Diet 20, sterilized by irradiation and water ad libitum, in the animal house (temperature 22 to 24° C., 50 to 55% humidity). Care and handling of the animals were in accordance to international recommended procedures. • Diabetes mellitus type I was induced with one intraperitoneal shot of streptozotocin (75 mg/Kg weight; Sigma, Cat. No. S0130), diluted in citrate buffer 0.1 M (Sigma, Cat. No. S4641) pH 4.5. Streptozotocin solution was prepared immediately before use and protected from light exposure.
(§2) B) Determination of Glucose Concentration in Blood. • Using heparinized capillary tubing (Chase Scientific Glass Inc. Cat. No. 2501) a drop of blood was taken from the eye orbital sinus of the rats. Blood glucose concentration was determined using reactive strips (One Touch, LIFESCAN, Johnson & Johnson) and a commercial glucometer (One Touch Basic Plus, LIFESCAN, Johnson & Johnson). Glucose concentration was determined in healthy animals and in those that had received the streptozotocin intraperitoneal shot at least three days before being tested.

[4] = biological target: T1, claudin-3 (Canis lupus familiaris, UniProt Q95KM5); test: Immunolocalization of TJ protein claudin-3 in MDCK monolayers; assay type: cell-based; settings: 4 μg/ml, 1 hr
T1 construct: endogenous in cells; host or cells: MDCK
T1 sequence (Q95KM5 1-218): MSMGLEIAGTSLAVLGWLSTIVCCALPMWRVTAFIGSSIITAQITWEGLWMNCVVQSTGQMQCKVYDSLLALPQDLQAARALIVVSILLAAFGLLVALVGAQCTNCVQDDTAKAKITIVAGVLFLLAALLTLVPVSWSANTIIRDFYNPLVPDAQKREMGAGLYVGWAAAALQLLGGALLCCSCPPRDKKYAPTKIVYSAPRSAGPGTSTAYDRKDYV
Protocol: (§3) MDCK cells were cultured in glass coverslips. Confluent cultures were exposed to 4 μg/ml of GST-VP8 for 1 hr. The cells were then fixed for 30 min with 2% p-formaldehyde in PBS, pH 7.4, and permeabilized for 3 min with 0.2% PBS-TX. Cells were washed five times with PBS and then blocked for 30 minutes with 1% BSA Ig free (Research Organics 1331-a). The monolayers were incubated overnight at 4° C. with rabbit polyclonal antibodies against ZO-1 (Zymed 61-7300, dilution 1:100), Claudin 3 (Zymed 34-1700, dilution 3 μgr/ml) or occludin (Zymed 71-1500, dilution 1:100 in 1% Ig-free BSA). After being washed five times with PBS, the coverslips were incubated for one hour at room temperature with a secondary antibody (FITC-conjugated goat anti-rabbit, catalogue no. 65-6111, diluted 1:100, Zymed). The monolayers were washed five times in PBS before being mounted with the antifade reagent Vectashield (Vector Laboratories Inc.). The fluorescence of the monolayers was examined using a confocal microscope (MRC600, Bio-Rad) with a Krypton-argon laser.

[5] = test system: MDCK monolayers; test: Calcium-switch assay for TJ assembly (development of TER); assay type: cell-based; settings: 4 μg/ml
Protocol: The ability of VP8 to inhibit the development of TJ was assessed utilizing the Ca^2+ switch assay (Gonzalez-Mariscal et al., 1990). Cells were plated at confluency on Millipore filters and incubated for 1 hour in DMEM (normal calcium media, NC; 1.8 mM Ca^2+). Then, the resulting monolayers were washed three times with PBS without Ca^2+ and transferred to minimal essential medium without Ca^2+ (low calcium media, LC; 1-5 μM Ca^2+). Twenty hours later experimental monolayers were transferred to LC media containing 4 μg/ml of GST-VP8 or of GST-VP5 dissolved in LC media, while control monolayers were again incubated in LC media. After 30 minutes, the experimental monolayers were transferred to NC media containing 4 μg/ml of GST-VP8 or of GST-VP5. Control monolayers received instead NC media. The TER was measured at different time points after the monolayers were transferred to NC media.

[6] = test system: ZO-1; test: Immunolocalization of TJ protein ZO-1 in MDCK monolayers; assay type: cell-based; settings: 4 μg/ml, 1 hr
Protocol: as §3

[7] = biological target: T2, occludin (Canis lupus familiaris, UniProt Q28269); test: Immunolocalization of TJ protein occludin in MDCK monolayers; assay type: cell-based; settings: 4 μg/ml, 1 hr
T2 construct: endogenous in cells; host or cells: MDCK
T2 sequence (Q28269 1-521): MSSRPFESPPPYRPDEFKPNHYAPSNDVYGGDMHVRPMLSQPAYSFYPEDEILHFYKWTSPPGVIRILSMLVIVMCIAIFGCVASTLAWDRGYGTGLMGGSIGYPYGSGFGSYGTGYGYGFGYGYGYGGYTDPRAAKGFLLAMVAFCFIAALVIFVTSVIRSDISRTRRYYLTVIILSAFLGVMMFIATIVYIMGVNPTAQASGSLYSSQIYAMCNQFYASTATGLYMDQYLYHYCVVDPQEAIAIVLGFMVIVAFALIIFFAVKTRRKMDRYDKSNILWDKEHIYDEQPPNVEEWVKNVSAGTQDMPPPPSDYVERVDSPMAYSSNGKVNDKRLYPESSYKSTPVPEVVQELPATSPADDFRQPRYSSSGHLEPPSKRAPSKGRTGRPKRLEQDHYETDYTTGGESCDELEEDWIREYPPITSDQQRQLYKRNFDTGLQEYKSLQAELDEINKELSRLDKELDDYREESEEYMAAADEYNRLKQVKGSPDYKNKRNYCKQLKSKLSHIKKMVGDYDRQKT
Protocol: as §3

[8] = test system: rats with streptozotocin induced diabetes; test: Blood glucose after insulin administration to diabetic rats; assay type: in vivo, rat
Protocol: as §1, §2
C) Administration of Insulin to Diabetic Rats. • In order to study the changes in glucose concentration generated by the administration of insulin, the first blood sample was taken from diabetic animals that had fasted overnight. Immediately after, the animals received their food (Lab Diet 5053), and 30 minutes later they were treated according to the following protocols: 1) Human insulin of intermediate action (3-6 IU/rat; Humulin® N, HI-310, Lilly) was parenterally administered. 2) Human insulin of intermediate action (15-30 IU/rat; Humulin® N, HI-310, Lilly) was given orally through an esophagic rat cannula (Fine Science Tools; Cat. No. 18061-75), in a solution of 400 μl of NaHCO3 (1.5 g/100 ml, pH 8.3-8.4), to neutralize gastric acidity. 3) Employing an esophagic rat cannula, 100 μg of GST-VP8 and human insulin of intermediate action (15-30 IU/rat; Humulin® N, HI-310, Lilly) were administered orally in a solution of 400 μl NaHCO3 (1.5 g/100 ml, pH 8.3-8.4). 4) 100 μg of GST-VP8 were administered orally through an esophagic rat cannula. The level of blood glucose was determined at different times after the start of each of the above described procedures.

[9] = test system: TJ of MDCK monolayers; test: Freeze-fracture analysis of TJ strands in MDCK monolayers; assay type: cell-based; settings: 4 μg/ml, 1 hour
Protocol: Confluent monolayers of MDCK cells were incubated for 1 hour with 4 μg/ml of GST-VP8 dissolved in DMEM, while control monolayers remained in DMEM. Freeze-fracture replicas were obtained from monolayers fixed with 2.5% glutaraldehyde for 30 minutes, and gradually infiltrated with glycerol up to a 20% concentration, in which they were left for 1 hour. The monolayers were then detached from the substrate and frozen in liquid nitrogen. Freeze fracture was carried out at −120° C., and 2×10^−6 mm Hg using a Balzers apparatus (BAF400T). After evaporation of platinum and carbon, the organic material was digested for 1 hour in chromic mixture. Replicas were extensively washed in distilled water and mounted in Formvar coated grids. The observations were done in an electron microscope JEOL 200EX.
To assess modifications in the pattern of TJ strands, we counted the number of strands intercepting lines drawn perpendicular to the main axis of the junction, every 48 nm, as well as the distance between the upper and lowermost strand. 59 and 54 μm of TJ networks were analysed respectively for control and VP8 treated monolayers.
As has been previously reported (Gonzalez-Mariscal et al., 1985) the amount of junction is defined by the following function:
Where ni is the number of strands in a segment of TJ, and % is the percentage in which that number of strands is present in the sample.
Total junctional width is defined as: […]
Where ni is the distance between the upper and lowermost filament in TJ segment, and %i is the percentage in which that width is present in the sample.

174IYTY177 (Rhesus Monkey Rotavirus) [SEQ. ID. No. 6]
TER of MDCK monolayers treated with synthetic cyclic peptides [1]: no effect; also recorded: TER similar to that of control cultures

144VVKT147 (Rhesus Monkey Rotavirus) [SEQ. ID. No. 4]
TER of MDCK monolayers treated with synthetic cyclic peptides [1]: no effect; also recorded: TER similar to that of control cultures

TGFβ
tumor growth [2]: significant reduction of tumor growth

CN(N=O)C(=O)N[C@H]1C(O)O[C@H](CO)[C@@H](O)[C@@H]1O (mixture of isomers) [streptozotocin]
concentration of blood glucose [3]: significantly increased the level of glucose in the blood
concentration of blood glucose ([3]; listed as Streptozotocin): significantly increases the concentration of blood glucose

GST-VP8: RRV VP8 fragment (VP4 gene nucleotides 1 to 750) cloned in pGEX-4T-1, fusion protein
distribution of claudin-3 (immunofluorescence) [4]: large areas almost devoid of lateral staining; also recorded: cell border staining becomes barely detectable in large areas of the monolayer
TER of epithelial (MDCK) monolayers ([1]; 4 μg/ml): significant decrease in TER
TER of epithelial (MDCK) monolayers ([1]; 4 μg/ml, listed as VP8-GST): significantly reduces the TER
TER after withdrawal of the protein from the culture media ([1]; 4 μg/ml): recover their TER
TER after withdrawal of the protein from the culture media ([1]; 4 μg/ml, listed as GST-VPB): the TER of the monolayers is restored
dose dependence of the effect upon TER [1]: dose-dependent decrease in TER
development of TER / epithelial paracellular barrier after transfer from low to normal calcium media [5]: delays the development of the epithelial paracellular barrier
distribution of ZO-1 (immunofluorescence) [6]: strong immuno reactivity in the cytoplasm; also recorded: strong immunoreactivity in the cytoplasm
distribution of occludin (immunofluorescence) [7]: broad and diffuse stain at the cell periphery; also recorded: diffuse and wide label at the cellular boundaries

insulin: Human insulin of intermediate action (Humulin® N, HI-310, Lilly) [reference compound]
blood glucose concentration, insulin administered orally alone ([8]; 30 IU, oral): the concentration of glucose remains high; also recorded: does not diminish the blood glucose concentration
blood glucose concentration, insulin administered parenterally ([8]; Humulin, intermediate action, 6 IU, parenteral): decreases the blood glucose concentration

183NVTT186 (Rhesus Monkey Rotavirus) [SEQ. ID. No. 7]
TER of MDCK monolayers treated with synthetic cyclic peptides [1]: significantly reduces the TER; also recorded: significantly lower TER

VP8: polypeptide derived from rotavirus protein VP4; used in the experiments as GST or His fusion protein
blood glucose concentration, insulin administered orally together with VP8 ([8]; VP8 100 μg and insulin 30 IU, oral): the blood glucose concentration diminishes; also recorded: diminishes significantly
blood glucose concentration, VP8 administered orally alone ([8]; VP8 100 μg, oral, no insulin): Only with the latter treatment the blood glucose concentration diminished
TER of epithelial (MDCK) monolayers ([1]; 4 μg/ml): diminishes the TER
reversibility with time of the effect upon TER ([1]; 4 μg/ml, protein kept in media): reversible with time; also recorded: in a reversible manner
dose dependence of the effect upon TER [1]: dose dependent
development of TER / epithelial paracellular barrier after transfer from low to normal calcium media [5]: a clear inhibition in the development of TER
TJ freeze fracture pattern [9]: induces the appearance of loose ends oriented perpendicular to the network of TJ fibrils
distribution of the number of TJ strands ([9]; versus control monolayers): no change
total amount of junction ([9]; versus control monolayers): no change
Number of loose ends/linear amount of junction in μm ([9]; control monolayers 0.17): 0.32
